Results taken from paper PMC9460261, “Need for a Standardized Translational Drug Development Platform: Lessons Learned from the Repurposing of Drugs for COVID-19” (Microorganisms, 2022).
Structures can show the parent of a compound that is named as a salt. Where two headings read alike, the source gives them in different places.

Columns and labels:
[1] = Plasma protein binding, hamster; details: for fraction unbound: hamster, plasma
[2] = Population PK model from satellite PK studies in hamster; details: for CL/F, elimination clearance, population estimate (%RSE) / Q/F (Q1/F), inter-compartment clearance, population estimate (%RSE) / VC/F, central volume of distribution, population estimate (%RSE) / VP/F, peripheral volume of distribution, population estimate (%RSE) / KA, absorption rate constant, population estimate (%RSE): hamster of the study's median weight (80-131 g)
[3] = Plasma protein binding, human; details: for fraction unbound: human, plasma
[4] = Binding to antiviral assay medium by Rapid Equilibrium Dialysis; details: for fraction unbound: bovine
[5] = system: SARS-CoV-2 in Vero cells
[6] = system: SARS-CoV-2; type: in vivo, Syrian hamster
[7] = system: SARS-CoV-2 in Calu-3 cells
[8] = system: SARS-CoV-2 in Vero cells; assay: microbe, parasite or virus in culture; details: Severe acute respiratory syndrome coronavirus 2, Vero
[9] = system: SARS-CoV-2; details: cited from earlier work
[10] = system: SARS-CoV-2 in Calu-3 cells; assay: microbe, parasite or virus in culture
[11] = in vitro; details: African green monkey, Selectivity Index (Vero cells)
[12] = Population PK model in human (digitized literature data); details: human; modelled from digitized data; ref 68 (ambroxol), 71-73 (cepharanthine), 78 (fluvoxamine), 80 (molnupiravir)
[13] = cited from earlier work
[14] = equilibrium dialysis, DNDi in-house
[15] = antiviral assay medium (DMEM with 2% v/v FCS)
[16] = host cell Vero, ref 25, read-out: SARS-CoV-2 EC50
[17] = doses, frequency, duration as in Table 1
[18] = Severe acute respiratory syndrome coronavirus 2, Calu-3, read-out: Calu-3 cells Average IC50
[19] = read-out: VERO cells Average IC50, With Pgp pump inhibitor, 2 μM CP-100356, * one replicate only
[20] = read-out: VERO cells Average IC50, Without Pgp pump inhibitor, * one replicate only
[21] = host cell Calu-3, read-out: SARS-CoV-2 EC50

| Compound | CL/F, elimination clearance, population estimate (%RSE) [2] | Q/F (Q1/F), inter-compartment clearance, population estimate (%RSE) [2] | VC/F, central volume of distribution, population estimate (%RSE) [2] | VP/F, peripheral volume of distribution, population estimate (%RSE) [2] | Activity In Vitro; Potency EC50 or IC50 < 10 µM; Vero Cells [5] | Activity In Vitro; Potency EC50 or IC50 < 10 µM; Calu-3 Cells [7] | fraction unbound [1] | KA, absorption rate constant, population estimate (%RSE) [2] | fraction unbound [3] | fraction unbound [4, 15] | Activity in SARS-CoV-2 Hamster Model [6, 17] | IC50 [10, 18] [µM] | IC50 [8, 19] [µM] | IC50 [8, 20] [µM] | selectivity ratio ([11]; Without Pgp pump inhibitor) | other results |
| --- | --- | --- | --- | --- | --- | --- | --- | --- | --- | --- | --- | --- | --- | --- | --- | --- |
| C[C@@]1(F)[C@H](O)[C@@H](CO)O[C@H]1n1cnc2c(=O)[nH]c(N)nc21 [AT-273] | 5.77 (33.1) mL/h | 6730 (12.2) mL/h | 49200 (13.2) mL | 84800 (27.3) mL |  |  |  |  |  |  |  |  |  |  |  | Fraction unbound in plasma, hamster [1, 14]: 95.5%; KTR, population estimate (%RSE) ([2]; hamster 119 g): 12.3 (50.5) h-1; Fraction unbound in plasma, human [3, 14]: 57.8%; Fraction unbound in assay medium ([4]; 2% serum DMEM media, DNDi in-house data): 99.1% |
| CNCCC(Oc1ccc(C(F)(F)F)cc1)c1ccccc1 (centres unmarked) [Fluoxetine, fluoxetine] | 447 (7.0) mL/h |  | 3530 (6.5) mL |  | Yes ^T (key: Yes: Potency EC50 or IC50 < 10 µM; No: Potency EC50 or IC50 < 10 µM) | No (key: Yes: Potency EC50 or IC50 < 10 µM; No: Potency EC50 or IC50 < 10 µM) | 0.051 | 5.34 (11.7) h-1 | 0.048 | 0.682 |  |  |  |  |  | Toxicity observed (^T), Vero Cells [5]: Yes ^T; Activity in SARS-CoV-2 Hamster Model ([6]; hamster, in vivo): No; IC50 ([8]; read-out: VERO cells Average IC50, With Pgp pump inhibitor): 5.6 µM; IC50 ([8]; read-out: VERO cells Average IC50, Without Pgp pump inhibitor): 7.7 µM; Dose effect on FFP (power) ([2]; covariate, hamster model): -0.0175 (13.7) |
| COC(=O)N[C@H](C(=O)N[C@@H](Cc1ccccc1)[C@@H](O)CN(Cc1ccc(-c2ccccn2)cc1)NC(=O)[C@@H](NC(=O)OC)C(C)(C)C)C(C)(C)C [Atazanavir, atazanavir] |  |  |  |  |  |  | 0.2 |  |  | 0.348 | no activity | 21 | > 50 | 45.5 | > 2.2 | EC50 ([9]; atazanavir and ATZ/ritonavir combination, read-out: EC50 in infected A549 lung epithelia cells): 0.6 µM; EC50 ([9]; host cell A549, read-out: SARS-CoV-2 EC50): 0.2 µM; EC50 ([9]; host cell Vero E6, ref 23, read-out: SARS-CoV-2 EC50): 2 µM; EC50 ([9]; host cell Vero E6, ref 24, read-out: SARS-CoV-2 EC50): 9.36 µM; EC50 [9, 16]: > 50 µM |
| COCCCC/C(=N\OCCN)c1ccc(C(F)(F)F)cc1 [Fluvoxamine maleate, fluvoxamine maleate] | 9500 (10.8) mL/h |  | 16500 (12.8) mL |  | No (key: Yes: Potency EC50 or IC50 < 10 µM; No: Potency EC50 or IC50 < 10 µM) | No (key: Yes: Potency EC50 or IC50 < 10 µM; No: Potency EC50 or IC50 < 10 µM) | 0.281 |  | 0.254 | 0.771 | No | > 50 | 32.6 | 26 |  | Dose effect on F (power) ([2]; covariate, hamster model): 1.21 (7.4); CL/F, population estimate (%RSE) [12]: 0.148 (3.0) L/h |
| CCN(CC)Cc1cc(Nc2ccnc3cc(Cl)ccc23)ccc1O [Amodiaquine, amodiaquine] | 4390 (7.44%) mL/h |  | 158 (15.3%) mL |  | Yes (Potency EC50 or IC50 < 10 µM) | No (Potency EC50 or IC50 < 10 µM) | 0.096 | 0.0784 (6.52%) h-1 | 0.067 | 0.878 | No (parent) | > 50 | 2.6 | 8.8 | > 5.7 | EC50 [9, 21]: > 50 µM; EC50 ([9]; host cell Huh7.5, read-out: SARS-CoV-2 EC50): 0.6 µM; EC50 ([9]; host cell Vero CCL81, read-out: SARS-CoV-2 EC50): 1.6 µM; EC50 ([9]; host cell Vero E6, ref 29, read-out: SARS-CoV-2 EC50): 10 µM; EC50 ([9]; host cell Vero E6, ref 30, read-out: SARS-CoV-2 EC50): 4.9 µM; EC50 [9, 16]: 5.2 µM; IC50 ([8]; read-out: EC50 or IC50, Vero Cells): ~10 µM; selectivity ratio ([11]; With Pgp pump inhibitor): > 19; Route effect (SC) on CL/F ([2]; covariate, hamster model): -85.3 (1.81%); Route effect (SC) on KA ([2]; covariate, hamster model): -20.4 (19.8%) |
| CCC(CC)COC(=O)[C@H](C)N[P@](=O)(OC[C@H]1O[C@@](C#N)(c2ccc3c(N)ncnn23)[C@H](O)[C@@H]1O)Oc1ccccc1 [remdesivir] |  |  |  |  |  |  |  |  |  |  |  |  |  |  |  | Effect on lung infectious titers ([6]; hamster, in vivo): no significant effect; Effect on lung viral RNA yields ([6]; hamster, in vivo): little significant effect; Plasma stability, half-life ([13]; genetically modified mouse (Cesc-/- knockout)): around 25 min; Plasma stability, half-life ([13]; mice): < 5 min |
| Cc1c(O)cccc1C(=O)N[C@@H](CSc1ccccc1)[C@H](O)CN1C[C@H]2CCCC[C@H]2C[C@H]1C(=O)NC(C)(C)C [Nelfinavir, nelfinavir] | 613 (4.2) mL/h |  | 547 (15.3) mL |  | Yes (Potency EC50 or IC50 < 10 µM) | Yes (Potency EC50 or IC50 < 10 µM) | 0.001 |  | 0.001 | 0.243 | No ^e | 12.8 | 1.6 | 5.5 | > 9 | Toxicity observed (^T), Vero Cells [5]: Yes ^T; EC50 ([9]; host cell Vero E6, ref 41, read-out: SARS-CoV-2 EC50): 2.89 µM; EC50 ([9]; host cell Vero, ref 40, read-out: SARS-CoV-2 EC50): 0.048 µM; EC50 ([9]; host cell VeroE6/TMPRSS2, read-out: SARS-CoV-2 EC50): 0.77 µM; Lung inflammation and disease outcome ([6]; hamster, in vivo): diminution of lung inflammation; Virus load ([6]; hamster, in vivo): no effect on viral load was detected; IC50 ([10]; Severe acute respiratory syndrome coronavirus 2, Calu-3, read-out: EC50 or IC50, Calu-3 Cells (borderline)): 13 µM; selectivity ratio ([11]; With Pgp pump inhibitor): > 32; Dose effect on F (linear) ([2]; covariate, hamster model): 0.384 (32); Dose effect on KA (linear) ([2]; covariate, hamster model): -0.801 (3.7) |
| CC(C)OC(=O)[C@H](C)N[P@](=O)(OC[C@H]1O[C@@H](n2ccc(=O)[nH]c2=O)[C@](C)(F)[C@@H]1O)Oc1ccccc1 [Sofosbuvir, sofosbuvir] | 122000 (14.4) mL/h | 139000 (17.2) mL/h | 46600 (29.9) mL | 1490000 (27.9) mL | No (Potency EC50 or IC50 < 10 µM) | No (Potency EC50 or IC50 < 10 µM) |  | 0.622 (15.9) h-1 |  |  | No | > 50 | > 50 | > 50 |  | EC50 [9, 21]: 7.3 µM; EC50 ([9]; host cell HuH-7, read-out: SARS-CoV-2 EC50): 5.1 µM; EC50 ([9]; host cell Vero, ref 26, read-out: SARS-CoV-2 EC50): > 10 µM; Activity in SARS-CoV-2 Hamster Model ([6]; doses, frequency, duration as in Table 1, listed as sofosbuvir): no activity; fraction unbound [4]: 0.716 |
| Nc1c(Br)cc(Br)cc1CN[C@H]1CC[C@H](O)CC1 [Ambroxol, ambroxol] | 4860 (11.3%) mL/h | 1180 (22.5%) mL/h | 12000 (10.9%) mL | 16100 (31.6%) mL | No (Potency EC50 or IC50 < 10 µM) | No (Potency EC50 or IC50 < 10 µM) | 0.125 | 4.76 (15.1%) h-1 | 0.238 | 0.954 | No | > 50 | > 50 | > 50 |  | EC50 ([9]; host cell Vero E6, ref 47, read-out: SARS-CoV-2 EC50): > 30 µM; Dose effect on F (power) ([2]; covariate, hamster model): 0.689 (11.1%); CL/F, population estimate (%RSE) [12]: 41.4 (3.0%) L/h |
